{"source": "patent US20250230193A1", "about": "“CYCLIC COMPOUND HAVING SELECTIVE KRAS INHIBITORY EFFECT ON HRAS AND NRAS” (CHUGAI SEIYAKU KABUSHIKI KAISHA, priority 2022, published 2025)", "key": {"[1]": {"molecular_target": "GDP-bound NRAS wild-type protein (Homo sapiens, UniProt P01111)", "sequence (P01111 whole entry)": "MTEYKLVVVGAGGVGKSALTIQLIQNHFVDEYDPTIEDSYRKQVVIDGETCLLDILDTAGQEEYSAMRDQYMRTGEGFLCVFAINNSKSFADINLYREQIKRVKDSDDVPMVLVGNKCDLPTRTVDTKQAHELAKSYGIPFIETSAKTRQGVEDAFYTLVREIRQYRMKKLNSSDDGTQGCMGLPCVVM", "test": "Binding to NRAS by surface plasmon resonance (SPR), Single Cycle Kinetics", "conditions": "for NRAS/KRAS (ratio of KD value with respect to NRAS to KD value with respect to KRAS) / NRAS/KRAS (ratio of KD value for NRAS to KD value for KRAS): GDP-bound NRAS wild-type vs GDP-bound KRAS wild-type, SPR"}, "[2]": {"molecular_target": "GDP-bound HRAS wild-type protein (Homo sapiens, UniProt P01112)", "sequence (P01112 whole entry)": "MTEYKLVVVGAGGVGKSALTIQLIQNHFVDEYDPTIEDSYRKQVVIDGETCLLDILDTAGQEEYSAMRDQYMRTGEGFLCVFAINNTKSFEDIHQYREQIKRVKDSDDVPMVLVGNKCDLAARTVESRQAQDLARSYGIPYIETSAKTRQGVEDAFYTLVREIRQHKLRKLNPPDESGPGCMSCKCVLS", "test": "Binding to HRAS by surface plasmon resonance (SPR), Single Cycle Kinetics", "conditions": "for HRAS/KRAS (ratio of KD value with respect to HRAS to KD value with respect to KRAS) / HRAS/KRAS (ratio of KD value for HRAS to KD value for KRAS): GDP-bound HRAS wild-type vs GDP-bound KRAS wild-type, SPR"}}}
{"smiles": "CCO[C@@H]1C[C@H]2C(=O)NC3(CCC3)C(=O)N(C)[C@@H](C3CCCC3)C(=O)N(C)[C@H](C(=O)N(C)C)CC(=O)N(C)[C@@H](Cc3cccc(Cl)c3)C(=O)N[C@@H]([C@@H](C)CC)C(=O)N(C)CC(=O)N(C)[C@H]3CCCCCN(C3=O)[C@@H](Cc3ccc(C(F)(F)F)cc3)C(=O)N(C)CC(=O)N[C@@H](CCc3cc(F)c(C(F)(F)F)c(F)c3)C(=O)N2C1", "note": "[PP0939]", "values": [{"measurement": "NRAS/KRAS (ratio of KD value with respect to NRAS to KD value with respect to KRAS)", "setting": "[1]; KD ratio", "value": "B (a compound having 3 or more and less than 10 is denoted as B)"}, {"measurement": "HRAS/KRAS (ratio of KD value with respect to HRAS to KD value with respect to KRAS)", "setting": "[2]; KD ratio", "value": "B (a compound having 3 or more and less than 10 is denoted as B)"}]}
{"smiles": "CC[C@H](C)[C@@H]1NC(=O)[C@H](C2CC2)N(C)C(=O)C[C@@H](C(=O)N(C)CC)N(C)C(=O)[C@H](C2CCCC2)N(C)C(=O)C2(CC(C)(C)C2)NC(=O)[C@@H]2C[C@H](C)CN2C(=O)[C@H](CCc2ccc(C(F)(F)F)c(OC)c2)NC(=O)CN(C)C(=O)[C@H](Cc2ccc(C(F)(F)F)cc2)N2CC/C=C\\C[C@@H](C2=O)N(C)C(=O)CN(C)C1=O", "note": "[PP2007]", "values": [{"measurement": "NRAS/KRAS (ratio of KD value for NRAS to KD value for KRAS)", "setting": "[1]; KD ratio", "value": "AA (a compound having 20 or more is denoted as AA)"}, {"measurement": "HRAS/KRAS (ratio of KD value for HRAS to KD value for KRAS)", "setting": "[2]; KD ratio", "value": "B (a compound having 3 or more and less than 10 is denoted as B)"}]}
{"smiles": "CCCC[C@H]1C(=O)N[C@@H]([C@@H](C)CC)C(=O)N(C)CC(=O)N(C)[C@H]2C/C=C\\CCN(C2=O)[C@@H](Cc2ccc(C(F)(F)F)cc2)C(=O)N(C)CC(=O)N[C@@H](CCc2cc(F)c(C(F)(F)F)c(F)c2)C(=O)N2C[C@H](OCC)C[C@H]2C(=O)NC2(CCC2)C(=O)N(C)[C@@H](C2CCCC2)C(=O)N(C)[C@H](C(=O)N(C)CCC)CC(=O)N1C", "note": "[PP1704]", "values": [{"measurement": "NRAS/KRAS (ratio of KD value for NRAS to KD value for KRAS)", "setting": "[1]; KD ratio", "value": "A (a compound having 10 or more and less than 20 is denoted as A)"}, {"measurement": "HRAS/KRAS (ratio of KD value for HRAS to KD value for KRAS)", "setting": "[2]; KD ratio", "value": "A (a compound having 10 or more and less than 20 is denoted as A)"}]}
{"smiles": "CCO[C@@H]1C[C@H]2C(=O)NC3(CC(C)(C)C3)C(=O)N(C)[C@@H](CC3CCC3)C(=O)N(C)[C@H](C(=O)N(C)C)CC(=O)N(C)[C@@H](COC)C(=O)N[C@@H]([C@@H](C)CC)C(=O)N(C3CC3)CC(=O)N(C)[C@H]3C/C=C\\CCN(C3=O)[C@@H](Cc3ccc(C(F)(F)F)cc3)C(=O)N(C)CC(=O)N[C@@H](CCc3cc(F)c(C(F)(F)F)c(F)c3)C(=O)N2C1", "note": "[PP2769]", "values": [{"measurement": "NRAS/KRAS (ratio of KD value with respect to GDP-bound NRAS wild-type protein to KD value with respect to KRAS)", "setting": "[1]; KD ratio NRAS/KRAS, class symbols", "value": "AA (a compound having 20 or more is denoted as AA)"}, {"measurement": "HRAS/KRAS (ratio of KD value with respect to GDP-bound HRAS wild-type protein to KD value with respect to KRAS)", "setting": "[2]; KD ratio HRAS/KRAS, class symbols", "value": "A (a compound having 10 or more and less than 20 is denoted as A)"}]}
{"smiles": "CC[C@H](C)[C@@H]1NC(=O)[C@H](CC(C)C)N(C)C(=O)C[C@@H](C(=O)N(C)C)N(C)C(=O)[C@H](C2CCCC2)N(C)C(=O)C2(CCCC2)NC(=O)[C@@H]2C[C@H](C)CN2C(=O)[C@H](CCc2cc(F)c(C(F)(F)F)c(F)c2)NC(=O)CN(C)C(=O)[C@H](Cc2ccc(C(F)(F)F)cc2)N2CC/C=C\\C[C@@H](C2=O)N(C)C(=O)CN(C)C1=O", "note": "[PP2268]", "values": [{"measurement": "NRAS/KRAS (ratio of KD value with respect to NRAS to KD value with respect to KRAS)", "setting": "[1]", "value": "A (a compound having 10 or more and less than 20 is denoted as A)"}, {"measurement": "HRAS/KRAS (ratio of KD value with respect to HRAS to KD value with respect to KRAS)", "setting": "[2]", "value": "A (a compound having 10 or more and less than 20 is denoted as A)"}]}
{"smiles": "CCO[C@@H]1C[C@H]2C(=O)NC3(CCC3)C(=O)N(C)[C@@H](C3CCCC3)C(=O)N(C)[C@H](C(=O)N(CC)CC)CC(=O)N(C)[C@@H](CC(C)C)C(=O)N[C@@H]([C@@H](C)CC)C(=O)N(C)CC(=O)N(C)[C@H]3C/C=C\\CCN(C3=O)[C@@H](Cc3ccc(C)cc3)C(=O)N(C)CC(=O)N[C@@H](CCc3ccc(C(F)(F)F)c(OC)c3)C(=O)N2C1", "note": "[PP1887]", "values": [{"measurement": "NRAS/KRAS (ratio of KD value for NRAS to KD value for KRAS)", "setting": "[1]; KD ratio", "value": "A (a compound having 10 or more and less than 20 is denoted as A)"}, {"measurement": "HRAS/KRAS (ratio of KD value for HRAS to KD value for KRAS)", "setting": "[2]; KD ratio", "value": "B (a compound having 3 or more and less than 10 is denoted as B)"}]}
{"smiles": "C#CCN1CC(=O)N(C)[C@H]2C/C=C\\CCN(C2=O)[C@@H](Cc2ccc(C)cc2)C(=O)N(C)CC(=O)N[C@@H](CCc2ccc(C(F)(F)F)c(OC)c2)C(=O)N2C[C@H](OCC)C[C@H]2C(=O)NC2(CC(C)(C)C2)C(=O)N(C)[C@@H](C2CCCC2)C(=O)N(C)[C@H](C(=O)N(C)C)CC(=O)N(C)[C@@H](CCC)C(=O)N[C@@H](CC(C)C)C1=O", "note": "[PP2514]", "values": [{"measurement": "NRAS/KRAS (ratio of KD value with respect to NRAS to KD value with respect to KRAS)", "setting": "[1]", "value": "A (a compound having 10 or more and less than 20 is denoted as A)"}, {"measurement": "HRAS/KRAS (ratio of KD value with respect to HRAS to KD value with respect to KRAS)", "setting": "[2]", "value": "B (a compound having 3 or more and less than 10 is denoted as B)"}]}
{"smiles": "CC[C@H](C)[C@@H]1NC(=O)[C@H](CC(C)C)N(C)C(=O)C[C@@H](C(=O)N2CCOCC2)N(C)C(=O)[C@H](C2CCCC2)N(C)C(=O)C2(CCC2)NC(=O)[C@@H]2C[C@@H](C(F)(F)F)CN2C(=O)[C@H](CCc2cc(F)c(C(F)(F)F)c(F)c2)NC(=O)CN(C)C(=O)[C@H](Cc2ccc(C(F)(F)F)cc2)N2CCCCC[C@@H](C2=O)N(C)C(=O)CN(C)C1=O", "note": "[PP0818]", "values": [{"measurement": "NRAS/KRAS (ratio of KD value with respect to NRAS to KD value with respect to KRAS)", "setting": "[1]; KD ratio", "value": "B (a compound having 3 or more and less than 10 is denoted as B)"}, {"measurement": "HRAS/KRAS (ratio of KD value with respect to HRAS to KD value with respect to KRAS)", "setting": "[2]; KD ratio", "value": "B (a compound having 3 or more and less than 10 is denoted as B)"}]}
